Reference: patent publication US7632829B2, “Diazepan derivatives” (Hoffmann-La Roche Inc., priority 2006, dated 2009)

The molecules below were run against T1, human chemokine receptor 2 isoform B (Homo sapiens, UniProt P41597) (assay: Calcium mobilization assay (FLIPR, CHOK1-CCR2B-A5 cells, 20 nM MCP-1)). Conditions: Ca mobilisation assay, CCR2, antagonist activity vs 20 nM MCP-1.
T1 construct: host or cells: CHOK1-CCR2B-A5 (CHO-K1)
T1 sequence (P41597 1-360 isoform P41597-2): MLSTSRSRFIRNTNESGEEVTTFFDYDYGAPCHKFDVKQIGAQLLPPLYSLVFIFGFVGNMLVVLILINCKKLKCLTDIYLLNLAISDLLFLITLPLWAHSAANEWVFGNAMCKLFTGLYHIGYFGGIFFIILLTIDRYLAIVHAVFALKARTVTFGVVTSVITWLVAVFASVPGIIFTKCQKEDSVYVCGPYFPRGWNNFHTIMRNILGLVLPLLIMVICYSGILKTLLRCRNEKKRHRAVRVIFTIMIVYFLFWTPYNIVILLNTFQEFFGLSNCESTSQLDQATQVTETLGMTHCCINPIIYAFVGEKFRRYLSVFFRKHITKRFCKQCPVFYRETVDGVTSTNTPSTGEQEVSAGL
Type: cell-based
Summary of the method: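 FLIPR Fluo-4 calcium readout in CHO-K1 cells stably overexpressing human CCR2B; compounds first monitored 80 s for agonist activity, then after 20-30 min at 30 °C challenged with 20 nM MCP-1. Response is max minus basal fluorescence; antagonist value is concentration giving 50% inhibition of specific calcium increase.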

SMILES	IC50 [nM]
O=C(/C=C/c1ccc(Cl)c(Cl)c1)N1CCC(=O)N(CCCN2CCS(=O)(=O)CC2)CC1 [Example 40, 1-[(E)-3-(3,4-Dichloro-phenyl)-acryloyl]-4-[3-(1,1-dioxo-thiomorpholin-4-yl)-propyl]-[1,4]diazepan-5-one]	611
COCCN(C)CCCN1CCN(C(=O)/C=C/c2ccc(Cl)c(Cl)c2)CCC1=O [Example 41, 1-[(E)-3-(3,4-Dichloro-phenyl)-acryloyl]-4-{3-[(2-methoxy-ethyl)-methyl-amino]-propyl}-[1,4]diazepan-5-one]	1180
O=C(/C=C/c1ccc(Cl)c(Cl)c1)N1CCC(=O)N(CCCN2CCC(c3ccccc3)CC2)CC1 [Example 45, 1-[(E)-3-(3,4-Dichloro-phenyl)-acryloyl]-4-[3-(4-phenyl-piperidin-1-yl)-propyl]-[1,4]diazepan-5-one]	13
O=C(/C=C/c1ccc(Cl)c(Cl)c1)N1CCC(=O)N(CCCN2CCCC2)CC1 [Example 46, 1-[(E)-3-(3,4-Dichloro-phenyl)-acryloyl]-4-(3-pyrrolidin-1-yl-propyl)-[1,4]diazepan-5-one]	333
O=C(/C=C/c1ccc(Cl)c(Cl)c1)N1CCC(=O)N(CCCN2CCC[C@H]2CO)CC1 [Example 47, (S)-1-[(E)-3-(3,4-Dichloro-phenyl)-acryloyl]-4-[3-(2-hydroxymethyl-pyrrolidin-1-yl)-propyl]-[1,4]diazepan-5-one]	193
O=C(/C=C/c1ccc(Cl)c(Cl)c1)N1CCC(=O)N(CCCN2CCC(O)(Cc3ccccc3)CC2)CC1 [Example 49, 4-[(E)-3-(4-Benzyl-4-hydroxy-piperidin-1-yl)-propyl]-1-[(E)-3-(3,4-dichloro-phenyl)-acryloyl]-[1,4]diazepan-5-one]	510
CC1CCN(CCCN2CCN(C(=O)/C=C/c3ccc(Cl)c(Cl)c3)CCC2=O)CC1 [Example 50, 1-[(E)-3-(3,4-Dichloro-phenyl)-acryloyl]-4-[3-(4-methyl-piperidin-1-yl)-propyl]-[1,4]diazepan-5-one]	55
O=C(/C=C/c1ccc(Cl)c(Cl)c1)N1CCC(=O)N(CCCN2CCSCC2)CC1 [Example 51, 1-[(E)-3-(3,4-Dichloro-phenyl)-acryloyl]-4-(3-thiomorpholin-4-yl-propyl)-[1,4]diazepan-5-one]	46
O=C(/C=C/c1ccc(Cl)c(Cl)c1)N1CCC(=O)N(CCCN2CCC(O)(c3ccncc3)CC2)CC1 [Example 53, 1-[(E)-3-(3,4-Dichloro-phenyl)-acryloyl]-4-[3-(4-hydroxy-3,4,5,6-tetrahydro-2H-[4,4′]bipyridinyl-1-yl)-propyl]-[1,4]diazepan-5-one]	441
O=C(/C=C/c1ccc(Cl)c(Cl)c1)N1CCC(=O)N(CCCN2CCC(F)(F)CC2)CC1 [Example 55, 1-[(E)-3-(3,4-Dichloro-phenyl)-acryloyl]-4-[3-(4,4-difluoro-piperidin-1-yl)-propyl]-[1,4]diazepan-5-one]	98
O=C(/C=C/c1ccc(Cl)c(Cl)c1)N1CCC(=O)N(CCCN2CCC(N3CCNC3=O)CC2)CC1 [Example 56, 1-[(E)-3-(3,4-Dichloro-phenyl)-acryloyl]-4-{3-[4-(2-oxo-imidazolidin-1-yl)-piperidin-1-yl]-propyl}-[1,4]diazepan-5-one]	1080
O=C(/C=C/c1ccc(Cl)c(Cl)c1)N1CCC(=O)N(CCCN2CCC(c3cc[nH]n3)CC2)CC1 [Example 57, 1-[(E)-3-(3,4-Dichloro-phenyl)-acryloyl]-4-{3-[4-(1H-pyrazol-3-yl)-piperidin-1-yl]-propyl}-[1,4]diazepan-5-one]	217
Cc1nc(C2CCN(CCCN3CCN(C(=O)/C=C/c4ccc(Cl)c(Cl)c4)CCC3=O)CC2)n[nH]1 [Example 58, 1-[(E)-3-(3,4-Dichloro-phenyl)-acryloyl]-4-{3-[4-(5-methyl-1H-[1,2,4]triazol-3-yl)-piperidin-1-yl]-propyl}-[1,4]diazepan-5-one]	546
N#CC1(c2ccccc2)CCN(CCCN2CCN(C(=O)/C=C/c3ccc(Cl)c(Cl)c3)CCC2=O)CC1 [Example 60, 1-(-3-{4-[(E)-3-(3,4-Dichloro-phenyl)-acryloyl]-7-oxo-[1,4]diazepan-1-yl}-propyl)-4-phenyl-piperidine-4-carbonitrile]	23
O=C(/C=C/c1ccc(Cl)c(Cl)c1)N1CCC(=O)N(CCCNC2CCOCC2)CC1 [Example 63, 1-[(E)-3-(3,4-Dichloro-phenyl)-acryloyl]-4-[3-(tetrahydro-pyran-4-ylamino)-propyl]-[1,4]diazepan-5-one]	503
O=C(C=Cc1ccc(Cl)c(Cl)c1)N1CCC(=O)N(CCCNC2CCC(O)(c3ccccn3)CC2)CC1 (stereo not drawn) [Example 65, trans-1-[(E)-3-(3,4-Dichloro-phenyl)-acryloyl]-4-[3-(4-hydroxy-4-pyridin-2-yl-cyclohexylamino)-propyl]-[1,4]diazepan-5-one]	197
O=C(/C=C/c1ccc(Cl)c(Cl)c1)N1CCC(=O)N(CCCN2CCC(O)(c3ccccn3)CC2)CC1 [Example 69, 1-[(E)-3-(3,4-Dichloro-phenyl)-acryloyl]-4-[3-(4′-hydroxy-3′,4′,5′,6′-tetrahydro-2′H-[2,4′]bipyridinyl-1′-yl)-propyl]-[1,4]diazepan-5-one]	185
O=C(/C=C/c1ccc(Cl)c(Cl)c1)N1CCC(=O)N(CCCN2CCC(O)(c3cccnc3)CC2)CC1 [Example 70, 1-[(E)-3-(3,4-Dichloro-phenyl)-acryloyl]-4-[3-(4′-hydroxy-3′,4′,5′,6′-tetrahydro-2′H-[3,4′]bipyridinyl-1′-yl)-propyl]-[1,4]diazepan-5-one]	146
O=C(/C=C/c1ccc(Cl)c(Cl)c1)N1CCC(=O)N(CCCN2CCC(C(F)(F)F)CC2)CC1 [Example 72, 1-[(E)-3-(3,4-Dichloro-phenyl)-acryloyl]-4-[3-(4-trifluoromethyl-piperidin-1-yl)-propyl]-[1,4]diazepan-5-one]	312
O=C(/C=C/c1ccc(Cl)c(Cl)c1)N1CCC(=O)N(CCCN2CCC(F)CC2)CC1 [Example 74, 1-[(E)-3-(3,4-Dichloro-phenyl)-acryloyl]-4-[3-(4-fluoro-piperidin-1-yl)-propyl]-[1,4]diazepan-5-one]	175
CN(CCCN1CCN(C(=O)/C=C/c2ccc(Cl)c(Cl)c2)CCC1=O)C1CCOCC1 [Example 78, 1-[(E)-3-(3,4-Dichloro-phenyl)-acryloyl]-4-{3-[methyl-(tetrahydro-pyran-4-yl)-amino]-propyl}-[1,4]diazepan-5-one]	444
COC1CCN(CCCN2CCN(C(=O)/C=C/c3ccc(Cl)c(Cl)c3)CCC2=O)CC1 [Example 79, 1-[(E)-3-(3,4-Dichloro-phenyl)-acryloyl]-4-[3-(4-methoxy-piperidin-1-yl)-propyl]-[1,4]diazepan-5-one]	706
CCOC(=O)NC1CCN(CCCN2CCN(C(=O)/C=C/c3ccc(Cl)c(Cl)c3)CCC2=O)CC1 [Example 82, [1-(3-{4-[(E)-3-(3,4-Dichloro-phenyl)-acryloyl]-7-oxo-[1,4]diazepan-1-yl}-propyl)-piperidin-4-yl]-carbamic acid ethyl ester]	297
O=C1NCC2(CCN(CCCN3CCN(C(=O)/C=C/c4ccc(Cl)c(Cl)c4)CCC3=O)CC2)O1 [Example 84, 8-(3-{4-[(E)-3-(3,4-Dichloro-phenyl)-acryloyl]-7-oxo-[1,4]diazepan-1-yl}-propyl)-1-oxa-3,8-diaza-spiro[4.5]decan-2-one]	223
